Laboratory results: US20150344540A1, “NOVEL GLP-1 RECEPTOR AGONISTS WITH CHOLESTEROL EFFLUX ACTIVITY” (NOVO NORDISK A/S, priority 2012, published 2015)
Read-outs that look alike come from different tables or passages of the source. Where a SMILES comes first, the peptide text is derived from it. Where no end group is shown, it is not given here. [ ]: non-standard residue; d: D form. Aib = CC(C)(N)C(=O)O

Assays:
[1] = test system: Mouse monocyte/macrophage cell line, RAW 264.7; assay: Cholesterol efflux assay (3H-cholesterol, macrophage cell line); assay type: cell-based; conditions: RAW 264.7, 4 hrs incubation, 0.1% human serum albumin, ABCA1-mediated efflux
[2] = biological target: human GLP-1 receptor (Homo sapiens, UniProt P43220); assay: Functional GLP-1 receptor assay, in vitro potency (CRE luciferase; whole cells); assay type: cell-based; conditions: BHK cells expressing human GLP-1 receptor
[3] = GLP1R CRE luc 1% HSA EC50 Mean Value, 1% HSA
[4] = 0% HSA, read-out: GLP1R CRE luc 0% HSA EC50 Mean Value

human GLP-1 receptor, sequence (P43220 24-463): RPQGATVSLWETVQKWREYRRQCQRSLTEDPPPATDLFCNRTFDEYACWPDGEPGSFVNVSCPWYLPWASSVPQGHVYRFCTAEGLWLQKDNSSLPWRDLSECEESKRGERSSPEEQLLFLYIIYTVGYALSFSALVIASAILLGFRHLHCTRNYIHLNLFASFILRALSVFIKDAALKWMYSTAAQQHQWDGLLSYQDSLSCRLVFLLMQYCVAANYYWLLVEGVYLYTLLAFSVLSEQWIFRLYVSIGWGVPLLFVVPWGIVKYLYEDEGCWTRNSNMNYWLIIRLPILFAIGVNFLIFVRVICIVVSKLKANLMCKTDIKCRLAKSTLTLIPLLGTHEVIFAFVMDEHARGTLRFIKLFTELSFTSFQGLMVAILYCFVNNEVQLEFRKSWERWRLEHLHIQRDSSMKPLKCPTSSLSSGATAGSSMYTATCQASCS

CC[C@H](C)[C@H](NC(=O)[C@H](Cc1ccccc1)NC(=O)[C@H](CCC(=O)O)NC(=O)[C@H](CCCCN)NC(=O)[C@H](C)NC(=O)[C@H](C)NC(=O)[C@H](CCC(N)=O)NC(=O)CNC(=O)[C@H](CCC(=O)O)NC(=O)[C@H](CC(C)C)NC(=O)[C@H](Cc1ccc(O)cc1)NC(=O)[C@H](CO)NC(=O)[C@H](CO)NC(=O)[C@@H](NC(=O)[C@H](CC(=O)O)NC(=O)[C@H](CO)NC(=O)[C@@H](NC(=O)[C@H](Cc1ccccc1)NC(=O)[C@@H](NC(=O)CNC(=O)[C@H](CCC(=O)O)NC(=O)C(C)(C)NC(=O)[C@@H](N)Cc1c[nH]cn1)[C@@H](C)O)[C@@H](C)O)C(C)C)C(=O)N[C@@H](C)C(=O)N[C@@H](Cc1c[nH]c2ccccc12)C(=O)N[C@@H](CC(C)C)C(=O)N[C@H](C(=O)N[C@@H](CCCCN)C(=O)NCC(=O)N[C@H](C(=O)NCC(=O)N[C@@H](CCC(=O)O)C(=O)N[C@@H](Cc1ccccc1)C(=O)N[C@@H](CC(C)C)C(N)=O)C(C)C)C(C)C [Compound 75]
4 h Cholesterol Efflux Emax [1]: 68%

CC[C@H](C)[C@H](NC(=O)[C@H](Cc1ccccc1)NC(=O)[C@H](CCC(N)=O)NC(=O)[C@H](CCCCN)NC(=O)[C@@H](NC(=O)[C@H](C)NC(=O)[C@H](CCC(N)=O)NC(=O)CNC(=O)[C@H](CCC(=O)O)NC(=O)[C@H](CC(C)C)NC(=O)[C@H](Cc1ccc(O)cc1)NC(=O)[C@H](CO)NC(=O)[C@H](CO)NC(=O)[C@@H](NC(=O)[C@H](CC(=O)O)NC(=O)[C@H](CO)NC(=O)[C@@H](NC(=O)[C@H](Cc1ccccc1)NC(=O)[C@@H](NC(=O)CNC(=O)[C@H](CCC(=O)O)NC(=O)C(C)(C)NC(=O)[C@@H](N)Cc1c[nH]cn1)[C@@H](C)O)[C@@H](C)O)C(C)C)C(C)C)C(=O)N[C@@H](C)C(=O)N[C@@H](Cc1c[nH]c2ccccc12)C(=O)N[C@@H](CC(C)C)C(=O)N[C@H](C(=O)N[C@@H](CCC(N)=O)C(=O)N[C@@H](CCCCN)C(=O)NC(C)(C)C(=O)N[C@@H](CCCCN)C(=O)N[C@@H](CCC(N)=O)C(=O)N[C@@H](Cc1ccccc1)C(=O)N[C@@H](CC(C)C)C(N)=O)C(C)C [Compound 102, [Aib8,Val25,Gln27,Gln34,Lys35,Aib36,Lys37]-GLP-1-(7-37)-peptidyl-Gln-Phe-Leu amide] (H-H[Aib]EGTFTSDVSSYLEGQAVKQFIAWLVQK[Aib]KQFL-NH2)
4 h Cholesterol Efflux Emax [1]: 100%

H-HAEGTFTSDVSSYLEGQAAKEFIAWLVEKVKEHLEK-OH [Compound 126, [Glu34,Lys35,Val36,Lys37]-GLP-1-(7-37)-peptidyl-Glu-His-Leu-Glu-Lys]
4 h Cholesterol Efflux Emax [1]: 102%

CC[C@H](C)[C@H](NC(=O)[C@H](Cc1ccccc1)NC(=O)[C@H](CCC(=O)O)NC(=O)[C@H](CCCCN)NC(=O)[C@H](C)NC(=O)[C@H](C)NC(=O)[C@H](CCC(N)=O)NC(=O)CNC(=O)[C@H](CCC(=O)O)NC(=O)[C@H](CC(C)C)NC(=O)[C@H](Cc1ccc(O)cc1)NC(=O)[C@H](CO)NC(=O)[C@H](CO)NC(=O)[C@@H](NC(=O)[C@H](CC(=O)O)NC(=O)[C@H](CO)NC(=O)[C@@H](NC(=O)[C@H](Cc1ccccc1)NC(=O)[C@@H](NC(=O)CNC(=O)[C@H](CCC(=O)O)NC(=O)C(C)(C)NC(=O)[C@@H](N)Cc1c[nH]cn1)[C@@H](C)O)[C@@H](C)O)C(C)C)C(=O)N[C@@H](C)C(=O)N[C@@H](Cc1c[nH]c2ccccc12)C(=O)N[C@@H](CC(C)C)C(=O)N[C@H](C(=O)N[C@@H](CCCCN)C(=O)N[C@@H](CCCCN)C(=O)NC(C)(C)C(=O)N[C@@H](CCCCN)C(=O)N[C@@H](CCC(=O)O)C(=O)N[C@@H](Cc1ccccc1)C(=O)N[C@@H](CC(C)C)C(N)=O)C(C)C [Compound 47, [Aib8,Lys35,Aib36,Lys37]-GLP-1-(7-37)-peptidyl-Glu-Phe-Leu amide]
4 h Cholesterol Efflux Emax [1]: 55%

CC[C@H](C)[C@H](NC(=O)[C@H](Cc1ccccc1)NC(=O)[C@H](CCC(=O)O)NC(=O)[C@H](CCCCN)NC(=O)[C@@H](NC(=O)C(C)(C)NC(=O)[C@H](CCC(=O)O)NC(=O)CNC(=O)[C@H](CCC(=O)O)NC(=O)[C@H](CC(C)C)NC(=O)[C@H](Cc1ccc(O)cc1)NC(=O)[C@H](CO)NC(=O)[C@H](CO)NC(=O)[C@@H](NC(=O)[C@H](CC(=O)O)NC(=O)[C@H](CO)NC(=O)[C@@H](NC(=O)[C@H](Cc1ccccc1)NC(=O)[C@@H](NC(=O)CNC(=O)[C@H](CCC(=O)O)NC(=O)C(C)(C)NC(=O)[C@@H](N)Cc1c[nH]cn1)[C@@H](C)O)[C@@H](C)O)C(C)C)C(C)C)C(=O)NC(C)(C)C(=O)N[C@@H](Cc1c[nH]c2ccccc12)C(=O)N[C@@H](CC(C)C)C(=O)N[C@H](C(=O)N[C@@H](CCC(=O)O)C(=O)N[C@@H](CCCCN)C(=O)NC(C)(C)C(=O)N[C@@H](CCCCN)C(=O)N[C@@H](CCC(=O)O)C(=O)N[C@@H](Cc1ccccc1)C(=O)N[C@@H](CC(C)C)C(N)=O)C(C)C [Compound 3, [Aib8,Glu23,Aib24,Val25,Aib30,Glu34,Lys35,Aib36,Lys37]-GLP-1-(7-37)-peptidyl-Glu-Phe-Leu amide] (H-H[Aib]EGTFTSDVSSYLEGE[Aib]VKEFI[Aib]WLVEK[Aib]KEFL-NH2)
4 h Cholesterol Efflux Emax [1]: 82%

H-HAEGTFTSDVSSYLEGQAAKEFIAWLVEGVKEFLEK-OH [Compound 127, [Glu34,Val36,Lys37]-GLP-1-(7-37)-peptidyl-Glu-Phe-Leu-Glu-Lys]
EC50 [2, 3]: 0.023 nM

HAEGTFTSDVSSYLEGQAAKEFIAWLVEKVKEFLE-NH2 [Compound 106, [Glu34,Lys35,Val36,Lys37]-GLP-1-(7-37)-peptidyl-Glu-Phe-Leu-Glu amide]
EC50 [2, 4]: 0.114 nM
EC50 [2, 3]: 0.028 nM

HAEGTFTSDVSSYLEGQAAKEFIAWLVEKVGEFL-NH2 [Compound 108]
EC50 [2, 4]: 0.059 nM
EC50 [2, 3]: 0.017 nM

HAEGTFTSDVSSYLEGQAAKEFIAWLVEKVKEF-NH2 [Compound 122, [Glu34,Lys35,Val36,Lys37]-GLP-1-(7-37)-peptidyl-Glu-Phe amide]
EC50 [2, 4]: 0.016 nM
EC50 [2, 3]: 0.005 nM

CC[C@H](C)[C@H](NC(=O)[C@H](Cc1ccccc1)NC(=O)[C@H](CCC(=O)O)NC(=O)[C@H](CCCCN)NC(=O)[C@@H](NC(=O)[C@H](C)NC(=O)[C@H](CCC(=O)O)NC(=O)CNC(=O)[C@H](CCC(=O)O)NC(=O)[C@H](CC(C)C)NC(=O)[C@H](Cc1ccc(O)cc1)NC(=O)[C@H](CC(N)=O)NC(=O)[C@@H](NC(=O)[C@H](CCSC)NC(=O)[C@H](CC(=O)O)NC(=O)[C@H](CC(N)=O)NC(=O)[C@@H](NC(=O)[C@H](Cc1ccccc1)NC(=O)[C@@H](NC(=O)CNC(=O)[C@H](CCC(=O)O)NC(=O)[C@H](C)NC(=O)[C@@H](N)Cc1c[nH]cn1)[C@@H](C)O)[C@@H](C)O)[C@@H](C)O)C(C)C)C(=O)N[C@@H](C)C(=O)N[C@@H](Cc1c[nH]c2ccccc12)C(=O)N[C@@H](CC(C)C)C(=O)N[C@H](C(=O)N[C@@H](CCC(=O)O)C(=O)N[C@@H](CCCCN)C(=O)NC(C)(C)C(=O)N[C@@H](CCCCN)C(=O)N[C@@H](CCC(=O)O)C(=O)N[C@@H](Cc1ccccc1)C(=O)N[C@@H](CC(C)C)C(N)=O)C(C)C [Compound 44, [Asn14,Met16,Thr17,Asn18,Glu23,Val25,Glu34,Lys35,Aib36,Lys37]-GLP-1-(7-37)-peptidyl-Glu-Phe-Leu amide] (H-HAEGTFTNDMTNYLEGEAVKEFIAWLVEK[Aib]KEFL-NH2; N-terminus assumed)
EC50 [2, 3]: 0.077 nM

HAEGTFTSDVSSYLEEEAVKEFIAWLVEKVKEF-NH2 [Compound 132, [Glu22,Glu23,Val25,Glu34,Lys35,Val36,Lys37]-GLP-1-(7-37)-peptidyl-Glu-Phe amide]
EC50 [2, 4]: 0.02 nM
EC50 [2, 3]: 0.01 nM

CC[C@H](C)[C@H](NC(=O)[C@H](Cc1ccccc1)NC(=O)[C@H](CCC(=O)O)NC(=O)[C@H](CCCCN)NC(=O)[C@H](C)NC(=O)[C@H](CCCCN)NC(=O)[C@H](CCCCN)NC(=O)[C@H](CCC(=O)O)NC(=O)[C@H](CCC(=O)O)NC(=O)[C@H](CC(C)C)NC(=O)[C@H](Cc1ccc(O)cc1)NC(=O)[C@H](CCCCN)NC(=O)[C@H](CO)NC(=O)[C@H](Cc1ccc(O)cc1)NC(=O)[C@H](CC(=O)O)NC(=O)[C@H](CO)NC(=O)[C@@H](NC(=O)[C@H](Cc1ccccc1)NC(=O)[C@@H](NC(=O)CNC(=O)[C@H](CCC(N)=O)NC(=O)[C@H](CO)NC(=O)[C@@H](N)Cc1c[nH]cn1)[C@@H](C)O)[C@@H](C)O)C(=O)N[C@@H](C)C(=O)N[C@@H](Cc1c[nH]c2ccccc12)C(=O)N[C@@H](CC(C)C)C(=O)N[C@@H](CC(C)C)C(=O)N[C@@H](CCC(=O)O)C(=O)N[C@@H](CCCCN)C(=O)NC(C)(C)C(=O)N[C@@H](CCCCN)C(=O)N[C@@H](CCC(=O)O)C(=O)N[C@@H](Cc1ccccc1)C(=O)N[C@@H](CC(C)C)C(N)=O [Compound 58] (H-HSQGTFTSDYSKYLEEKKAKEFIAWLLEK[Aib]KEFL-NH2)
EC50 [2, 4]: 1.17 nM
EC50 [2, 3]: 0.588 nM

HAEGTFTSDVSSYLEGQAAKEFIAWLVEHVKEFL-NH2 [Compound 140, [Glu34,His35,Val36,Lys37]-GLP-1-(7-37)-peptidyl-Glu-Phe-Leu amide]
EC50 [2, 4]: 0.103 nM

CC[C@H](C)[C@H](NC(=O)[C@H](Cc1ccccc1)NC(=O)[C@H](CCC(=O)O)NC(=O)[C@H](CCCCN)NC(=O)[C@@H](NC(=O)[C@H](C)NC(=O)[C@H](CCC(=O)O)NC(=O)CNC(=O)[C@H](CCC(=O)O)NC(=O)[C@H](CC(C)C)NC(=O)[C@H](Cc1ccc(O)cc1)NC(=O)[C@H](CCC(=O)O)NC(=O)[C@@H](NC(=O)[C@@H](NC(=O)[C@H](CC(=O)O)NC(=O)[C@H](CC(N)=O)NC(=O)[C@@H](NC(=O)[C@H](Cc1ccc(O)cc1)NC(=O)[C@@H](NC(=O)CNC(=O)[C@H](CCC(=O)O)NC(=O)[C@H](C)NC(=O)[C@@H](N)Cc1c[nH]cn1)[C@@H](C)O)[C@@H](C)O)C(C)C)[C@@H](C)O)C(C)C)C(=O)N[C@@H](C)C(=O)N[C@@H](Cc1c[nH]c2ccccc12)C(=O)N[C@@H](CC(C)C)C(=O)N[C@H](C(=O)N[C@@H](CCC(=O)O)C(=O)N[C@@H](CCCCN)C(=O)NC(C)(C)C(=O)N[C@@H](CCCCN)C(=O)N[C@@H](CCC(=O)O)C(=O)N[C@@H](Cc1ccccc1)C(=O)N[C@@H](CC(C)C)C(N)=O)C(C)C [Compound 13, [Tyr12,Asn14,Thr17,Glu18,Glu23,Val25,Glu34,Lys35,Aib36,Lys37]-GLP-1-(7-37)-peptidyl-Glu-Phe-Leu amide] (H-HAEGTYTNDVTEYLEGEAVKEFIAWLVEK[Aib]KEFL-NH2; N-terminus assumed)
EC50 [2, 3]: 0.104 nM
